Measured values: patent publication US20070274916A1, “Method for Identifying Compounds that Affect Expression of Tryptophan Hydroxylase Isoform 2” (priority 2003, published 2007)

Tests used:
[1] = Uterine weight of ovariectomized female mice; assay type: in vivo, mouse; conditions: FIG. 12
TPH1 mRNA = test: TPH1 message levels in ER-β knockout mice; assay type: in vivo, mouse
Description: Female mice (13 to 16 wks of age) were ovariectomized (C57BL/6s from Charles River; ER Knockout animals from Taconic). Animals were fed a soy-free rodent chow and allowed a minimum of one week to recuperate from surgery and shipping. Mice were dosed subcutaneously in the morning (once daily for 4 days) with 0.1 cc of vehicle (sesame oil) or compound (3, 10, or 20 mpk dexamethasone, RU486, estradiol, or prednisolone as indicated). Approximately six hours following the fourth dose, mice were deeply anesthetized with ketamine/xylazine and brains were removed from the skull, placed ventral side up in a mouse brain block on ice, and ice-cold razor blades were inserted into the block at 1 mm intervals. The caudal extent of the hypothalamus was used as an anatomical marker for the placement of the first razor blade, and 4 blades were placed in sequential slots, caudally. The four sections were examined and the two that encompassed the greatest extent of the dorsal raphe were placed in a tube containing RNALATER (Ambion, Austin, Tex.) and placed at 4° C. overnight. Brain slices were removed from RNALATER after 24 hours and stored at −80° C. in fresh tubes.

**Q.** Which “uterine weight measurements” value [1] does the source give for C[C@]12CC[C@@H]3c4ccc(O)cc4CC[C@H]3[C@@H]1CC[C@@H]2O [17β-estradiol] here?
**A.** The value was “dramatically induced”.

**Q.** What about the “effect on TPH1 message levels” value (TPH1 mRNA) of the same compound?
**A.** The value was “no effect”.
